Each block holds one molecule with its values, some of them ahead of it.
Columns and labels:
Hb [1] = molecular target: T1, Hb (Homo sapiens, UniProt P68871+P69905, E7V); assay: Hb oxygen equilibrium study (P50 shift, Hemox Analyzer) on lysate of compound-treated SS cells; type: cell-based; conditions: intact SS cells; for activation at 2000 µM: 2 mM compound; for activation at 2000 µM / activation at 5000 µM: read-out: increase in Hb oxygen affinity (ΔP50); for activation at 5000 µM: 5 mM compound; for effect on Hb affinity for oxygen: 2 mM and/or 5 mM
T1 construct: Leftover blood samples from patients with homozygous SS were obtained and utilized; from tissue; host or cells: blood (red cells, then hemolysate) of patients with homozygous SS
Text: (§1) Materials and General Procedure: Leftover blood samples from patients with homozygous SS were obtained and utilized, based on an approved IRB protocol at the Children's Hospital of Philadelphia, with informed consent.
(§2) Experimental Procedure: The MMA series of compounds (MMA-301, MMA-304, MMA-205, MMA-401, MMA-402, MMA-403, MMA-405, MMA-406, MMA-407, MMA-408, MMA-409 and MMA-410) and the positive controls vanillin and 5-HMF were studied for their abilities to inhibit hypoxia-induced RBC sickling (RBC morphology study), increase Hb oxygen, and/or modify Hb (adduct formation) as previously published.^31,33 Briefly, homozygous SS blood (hematocrit: 20%) suspensions were incubated under air in the absence or presence of 2 and/or 5 mM concentration of test compounds at 37° C. for 1 hr. Following, the suspensions were incubated under hypoxic condition (2.5% oxygen) at 37° C. for 2 hr. Aliquot samples were fixed with 2% glutaraldehyde solution without exposure to air, and then subjected to microscopic morphological analysis. The residual samples were washed in phosphate-buffered saline, and hemolyzed in hypotonic lysis buffer for the Hb oxygen equilibrium and Hb adduct experiments. For the Hb oxygen equilibrium study, approximately 100 μl aliquot samples from the lysate were added to 4 ml of 0.1M potassium phosphate buffer, pH 7.0, in a cuvette and subjected to hemoximetry analysis using Hemox™ Analyzer (TCS Scientific Corp.) to assess P50 shifts. Another aliquot from the lysate was also subjected to Hb adduct formation study using cation-exchange HPLC (Hitachi D-7000 Series, Hitachi Instruments, Inc., San Jose, Calif.) with a weak cation-exchange column (Poly CAT A: 30 mm×4.6 mm, Poly LC, Inc., Columbia, Md.). To determine the binding of the MMA compounds to either α- or β-globin chains, the hemolysates were subjected to reversed-phase (RP) HPLC on a Hitachi D-7000 HSM Series, using a Jupiter 5 μm C-4 50×4.6 mm column, (Phenomenex®, Torrence, Calif.) and a gradient from 20% to 60% acetonitrile in 0.3% trifluoroacetic acid in 15 minutes, with UV detection at 215 nm.

intact SS cells = assay: Inhibition of hypoxia-induced RBC sickling (RBC morphology study) in homozygous SS blood; type: cell-based, human; conditions: SS blood hematocrit 20%, 2.5% oxygen, 37° C., 2 hr
Text: as §1, §2

Hb [2] = molecular target: T2, Hb (Homo sapiens, UniProt P68871+P69905); assay: In vitro time-dependent Hb oxygen equilibrium study using normal whole blood; type: in vitro ADME; conditions: 2 mM; normal whole blood 30% hct; 37° C.; 1, 4 and 24 hr
T2 construct: Normal whole blood was collected from adult donors; from tissue; host or cells: normal whole blood of adult donors
Description: Materials and General Procedure: Normal whole blood was collected from adult donors at the Virginia Commonwealth University after informed consent, in accordance with regulations of the IRB for Protection of Human.
Experimental procedure: MMA-409 and the control 5-HMF were used to conduct time-dependent studies on Hb oxygen oxygen equilibrium using normal whole blood. The study was performed in a 96-well deep well (Thermo Scientific) plate, where each compound at 2 mM concentration was added to 600 μL of whole blood (30% hct) and incubated at 37° C. for 24 hr with shaking (at 140 rpm). Additionally, DMSO (1%) alone was also tested as a negative control. At 1, 4 and 24 hr time intervals, 75 μL aliquot of blood was removed from each well using a multichannel pipette and the reaction stopped by freezing at −80° C. until ready for hemoximetry analysis using Hemox™ Analyzer (TCS Scientific Corp.) to assess P50 shifts.^32 The observed P50 shifts values in % P50 shifts were plotted as function of time [hrs].

βCys93 of Hb = βCys93 of Hb (Homo sapiens, UniProt P68871); assay: Reactivity toward βCys93 of Hb (DTNB disulfide exchange, absorbance at 412 nm); type: biochemical; conditions: 2 mM compound, Hb 50 μM, four hours at 25° C.
Description: Experimental Procedure: Aqueous solution of Hb (50 μM) was mixed with MMA 409 or MMA 410 (2 mM). Additionally, Hb was mixed with phosphate buffered saline (PBS) to serve as a negative control. […] Ethacrynic acid, which is known to bind to the thiols of hemoglobin and thus limits the reaction between DTNB (5,5′-dithiobis-(2-nitrobenzoic acid) and βCys93, was studied as a positive control.^42 The mixtures were incubated for four hours at 25° C., and then centrifuged with washing to separate excess reagents from the Hb. The washed hemoglobin was stored overnight at 4° C. After, 5 μL of 100 mM DTNB was added to 25 μL of each Hb solution, and these solutions were each diluted to 500 μL in 0.1 M phosphate buffer and were incubated for an hour. Another 25 μL of each Hb solution was diluted to 500 μL in buffer to serve as a non-DTNB control. The tubes containing these solutions were centrifuged, and the collected yellow filtrate was quantified by measuring absorbance at 412 nm using a spectrophotometer as previously described.^42

α- or β-globin chains = molecular target: T3, α- or β-globin chains (Homo sapiens, UniProt P68871+P69905, E7V); assay: Reversed-phase HPLC of hemolysates for binding to α- or β-globin chains; type: cell-based; conditions: 2 mM and 5 mM; intact SS cells; reverse-phase HPLC
T3 construct: Leftover blood samples from patients with homozygous SS were obtained and utilized; from tissue; host or cells: blood (red cells, then hemolysate) of patients with homozygous SS
Text: as §1
(§3) Experimental Procedure: The MMA series of compounds (MMA-301, MMA-304, MMA-205, MMA-401, MMA-402, MMA-403, MMA-405, MMA-406, MMA-407, MMA-408, MMA-409 and MMA-410) and the positive controls vanillin and 5-HMF were studied for their abilities to inhibit hypoxia-induced RBC sickling (RBC morphology study), increase Hb oxygen, and/or modify Hb (adduct formation) as previously published.^31,33 Briefly, homozygous SS blood (hematocrit: 20%) suspensions were incubated under air in the absence or presence of 2 and/or 5 mM concentration of test compounds at 37° C. for 1 hr. Following, the suspensions were incubated under hypoxic condition (2.5% oxygen) at 37° C. for 2 hr. Aliquot samples were fixed with 2% glutaraldehyde solution without exposure to air, and then subjected to microscopic morphological analysis. The residual samples were washed in phosphate-buffered saline, and hemolyzed in hypotonic lysis buffer for the Hb oxygen equilibrium and Hb adduct experiments. […]

Hb [3] = molecular target: T1, Hb; assay: Hb adduct formation study by cation-exchange HPLC after incubation with intact SS cells; type: cell-based; conditions: 2 mM and/or 5 mM
Text: as §1, §3

[4] = in-vivo; aldehyde protected by L-cysteine; cited from earlier work

SMILES: O=Cc1ccc(CO)o1 [5-HMF, 5-Hydroxymethylfurfural]
activation at 2000 µM (Hb [1]): 33%
RBC sickling (reduced to) (intact SS cells; 2 mM compound): 50%
RBC sickling (reduced to) (intact SS cells; 5 mM compound): 14%
time course of biological activity (P50 shift) over 24 hr (Hb [2]): declined rapidly

SMILES: CC(=O)/C=C/c1ncc[nH]1 [MMA-301, (E)-4-(1H-imidazol-2-yl)but-3-en-2-one]
activation at 2000 µM (Hb [1]): 12.7%
activation at 5000 µM (Hb [1]): 18.2%

SMILES: NC(=O)C(=O)c1ncc[nH]1 [MMA-304]
activation at 2000 µM (Hb [1]): 16.5%
activation at 5000 µM (Hb [1]): 22.1%

SMILES: O=C(O)/C=C/c1ccc(CO)o1 [MMA-401, (E)-3-(5-(hydroxymethyl)furan-2-yl)acrylic acid]
melting point: 138 °C

SMILES: NC(=O)/C=C/c1ccc(CO)o1 [MMA-403, (E)-3-(5-(hydroxymethyl)furan-2-yl)acrylamide]
melting point: 131 to 156 °C

SMILES: O=C(O)C1CSC(c2ccc(CO)o2)N1 (centres unmarked) [thiazolidine complex of 5-HMF]
extension of 5-HMF half-life [4]: 2 fold

SMILES: COc1cc(C=O)ccc1O [vanillin, reference compound]
activation at 2000 µM (Hb [1]): 12%
activation at 5000 µM (Hb [1]): 27%
RBC sickling (reduced to) (intact SS cells; 2 mM compound): 57%
RBC sickling (reduced to) (intact SS cells; 5 mM compound): 36%

Now from value to molecule, other results behind:

melting point: 20 °C
SMILES: CC(=O)/C=C/c1ccc(CO)o1 [MMA-404, (E)-4-(5-(hydroxymethyl)furan-2-yl)but-3-en-2-one]

effect on Hb affinity for oxygen (Hb [1]): no effect
SMILES: COCc1ccc(C(=O)C(F)(F)F)o1 [MMA-405, 2,2,2-trifluoro-1-(5-(methoxymethyl)furan-2-yl)ethan-1-one]

effect on Hb affinity for oxygen (Hb [1]): no effect
melting point: 66 °C
SMILES: COC(=O)/C=C/c1ccc(CO)o1 [MMA-406, methyl (E)-3-(5-(hydroxymethyl)furan-2-yl)acrylate]

activation at 2000 µM (Hb [1]): 22%
activation at 5000 µM (Hb [1]): 52%
% free thiols of βCys93 (βCys93 of Hb): 46%
Hb modification (adduct formation) (Hb [3]): significant Hb modification
SMILES: C=CC(=O)c1ccc(COc2ccccc2)o1 [MMA-409]
adduct formation with globin chain (α- or β-globin chains): exclusive adduct formation with the β-chain
RBC sickling (reduced to) (intact SS cells; 2 mM compound): 49%
RBC sickling (reduced to) (intact SS cells; 5 mM compound): 18%
time course of biological activity (P50 shift) over 24 hr (Hb [2]): sustained throughout the 24 hr experiment

% free thiols of βCys93 (βCys93 of Hb): 54%
SMILES: C#CC(=O)c1ccc(COc2ccccc2)o1 [MMA-410]

% free thiols of βCys93 (βCys93 of Hb): 54%
SMILES: C=C(CC)C(=O)c1ccc(OCC(=O)O)c(Cl)c1Cl [ethacrynic acid, Ethacrynic acid, reference compound]

— US11319292B2, “Metabolically stable 5-HMF derivatives for the treatment of hypoxia” (King Abdulaziz University, priority 2020, dated 2022)
